Laboratory results: patent US12319752B2, “Heparin-binding cationic peptide self-assembling peptide amphiphiles useful against drug-resistant bacteria” (priority 2016, dated 2025)
Residues, ends and D or L forms follow the SMILES beside them. *: point of attachment. Palmitoyl = CCCCCCCCCCCCCCCC(=O)*

How the values were obtained:
MDR E. coli = assay: Bacterial growth inhibition (growth curves, OD562, 20 h); type: cell-based, multidrug-resistant E. coli (MDR E. coli, ATCC #BAA-2471)
Protocol: Gram-positive (S. aureus and MRSA) and Gram-negative (E. coli and MDR E. coli) bacteria were incubated with peptide concentrations ranging from 20 to 100 μM, and time-lapsed bacterial growth was monitored for 20 hours by determining the optical density at 562 nm (O.D. 562 nm). […] At the highest concentration tested (100 μM), the time to exponential growth phase of S. aurues was delayed by about 18 h (FIG. 5B), and was prolonged by almost 13 h for MRSA (FIG. 5A), while bacteria incubated without ACA-PA entered the exponential growth phase within 4 h. Gram-positive bacteria were also susceptible to the ACA-PA even below their CMC.
The MIC values of ACA-PA towards drug-resistant bacteria were determined after 24 h of incubation (Table 2).
This assay was performed to investigate the inhibitory effects of each peptide against Gram-positive Staphylococcus aureus (S. aureus, ATCC #25923) and methicillin-resistant S. aureus (MRSA, ATCC #43300), as well as Gram-negative Escherichia coli (E. coli, ATCC #25922), and multidrug-resistant E. coli (MDR E. coli, ATCC #BAA-2471). In all experiments, solutions of each peptide at the concentrations from 20 μM to 100 μM in 3% Tryptic Soy Broth (TSB) media were freshly prepared. A single colony of bacteria was isolated from a stock agar plate and cultured overnight in 4 mL of 3% TSB on a shaking incubator set at 200 rpm and 37° C. The bacteria culture was adjusted to an optical density at 562 nm (OD562) to about 0.52 (10^9 cells/mL), and the resulting bacteria suspension was subsequently diluted to about 10^6 colony forming units (CFU) per mL in each sample. The control samples were bacteria incubated in TSB media without peptides. The bacteria were incubated inside a spectrophotometer (Spectra-Max Paradigm, Molecular Devices, Sunnyvale, CA) at 37° C. under static conditions for 20 h, and the bacterial growth curves were measured in terms of turbidity at OD562 every 2 minutes. The normalized OD562 values of samples were calculated by subtracting the […].

MRSA = assay: Viable colony count assay (bactericidal effect, 4 h); type: cell-based, methicillin-resistant S. aureus (MRSA, ATCC #43300)
Protocol: The bactericidal effects of the peptides were examined using a viable colony count assay as well as the live/dead staining assay. For the viable colony count assay, bacteria were treated with peptides for 4 h and the resulting viable bacterial density of each sample was expressed by log10[CFU/mL]. For the Gram-positive bacteria tested, the decrease in bacterial density was dependent on the concentration of the ACA-PA (FIG. 8A). […] As for Gram-negative E. coli and MDR E. coli bacteria (FIG. 8B), the ACA nanorods, wherein the PA were added at a concentration above their CMC, had potent bactericidal effects. For example, the ACA nanorods at concentrations over 60 μM reduced the colony forming units of Gram-negative bacteria by about a five log unit reduction after 4 h compared with the untreated negative control sample.
In addition, ACA-PA were mixed with heparin at various weight ratios (1:1, 1:2, and 1:3 ACA-PA to heparin ratios) to block the Cardin motif groups on the PA. The ACA-PA concentration used to treat bacteria (MRSA and MDR E. coli) was a constant 80 μM and only varied in the concentration of heparin.
The viable count assay was performed to quantify the bactericidal activity of each peptide. Stock solutions of peptides were diluted in 3% TSB media to concentrations ranging from 20 μM to 100 μM immediately before experiments. Heparin-ACA-PA were also prepared by mixing the ACA-PA stock solution with heparin (sodium salt from porcine intestinal mucosa, Sigma, St. Louis, MO) to 1:1, 1:2 and 1:3 weight ratios in water, and a final concentration of ACA-PA in the heparin-ACA-PA at each heparin weight ratio was adjusted to 80 μM for each experiment. The bacteria (10^6 CFU/mL) were incubated with peptides at 37° C. for 4 h. After incubation, serial dilutions of samples were plated on TSB agar and then incubated at 37° C. overnight. The colonies from each spot were manually counted, and the CFU number for each sample was determined. Experiments were conducted in triplicate and results were expressed as the log 10 values of the CFU number in each sample. Data were expressed by stand error of the mean (±S.E.M.) and N=3, *p<0.05 compared with control samples and #p<0.05 compared with bacteria treated with 40 μM of ACA-PA.

CCCCCCCCCCCCCCCC(=O)N[C@H](C(=O)N[C@H](C(=O)N[C@H](C(=O)N[C@H](C(=O)N[C@@H](CCCCN)C(=O)N[C@@H](CCCCN)C(=O)N[C@@H](CCCCN)C(=O)N[C@@H](CCCCN)C(=O)NCC(=O)N[C@@H](C)C(=O)N[C@@H](CCCCN)C(=O)N[C@@H](CCCCN)C(=O)N[C@@H](C)C(=O)N[C@@H](CCCNC(=N)N)C(=O)N[C@@H](C)C(=O)N[C@@H](C)C(=O)N[C@@H](CCCCN)C(=O)N[C@@H](CCCCN)C(=O)N[C@@H](C)C(=O)N[C@@H](CCCNC(=N)N)C(=O)N[C@@H](C)C(=O)O)C(C)C)C(C)C)C(C)C)C(C)C [ACA-PA, C16-V4K4G(AKKARA)2 (SEQ ID NO: 7)] (Palmitoyl-VVVVKKKKGAKKARAAKKARA-OH; N-terminus and C-terminus assumed)
bacterial growth inhibition (MDR E. coli; 20 to 100 μM, 20 h): remarkably inhibited the proliferation | bacterial proliferation (MDR E. coli; concentrations higher than the CMC (60 μM to 100 μM)): significantly suppressed | bacterial growth inhibition (MDR E. coli; concentrations lower than the CMC): did not significantly inhibit bacterial growth | bacterial growth (MDR E. coli; over 80 μM): no bacteria growth was observed | decrease in bacteria density (MRSA; MRSA (Gram-positive), 60 to 100 μM): ~100 fold | number of viable bacteria colonies after mixing with heparin (MRSA; MRSA, 80 μM ACA-PA, 1:1, 1:2, 1:3 ACA-PA to heparin weight ratios): positively proportional to the amount of heparin added | toxicity towards bacteria after mixing with heparin (MRSA; MRSA, 80 μM ACA-PA, 1:3 ACA-PA to heparin weight ratio, 4 h): no toxicity towards bacteria | decline in bacteria density (MRSA; MRSA, over 80 μM, 4 h): 100 fold | decrease of colony forming units (MRSA; MRSA, over 80 μM, 4 h): two
